Assay results as given in patent US20220387405A1, “METHODS OF TREATMENT WITH N-((R)-1-(3-CHLOROPYRIDIN-2-YL)-2,2,2-TRIFLUOROETHYL)-2-((S)-2,6-DIOXOPIPERIDIN-3-YL)-1-OXOISOINDOLINE-5-CARBOXAMIDE” (CELGENE CORPORATION, priority 2021, published 2022).
pIC50: −log10 of the molar value. Read-outs that look alike come from different tables or passages of the source.

Key:
[1] = tested on: leukemic cells from TP53 WT AML patients; assay: PharmaFlow test (Vivia), cytotoxic effect on leukemic cells in AML patient BM samples; assay type: cell-based, human
[2] = tested on: leukemic progenitors from BM samples of AML patients; assay: Colony forming assay (CFU-GM) with BM samples of AML patients; assay type: cell-based, human; details: TP53 WT AML samples (14 of 18), compared to vehicle control
Procedure: Ex vivo activity of Compound 1 was evaluated in normal and leukemic progenitors from BM samples of 25 AML patients using colony forming assays. […] The effect of Compound 1 on CK1α degradation, p53 accumulation, and activation is concentration- and time-dependent.

[3] = tested on: CD34+ cells from BM samples of TP53 WT AML donors; assay: Liquid culture of CD34+ cells from TP53 WT AML donors (FACS); assay type: cell-based, human
Procedure: CD34^+ cells isolated from BM samples of 3 TP53 WT AML donors and 3 healthy donors were treated with increasing concentrations of Compound 1 in liquid culture at times ranging from 4 hours to 5 days. […] Acute myeloid leukemia blasts sustained CK1α degradation up to 5 days in culture as assessed by fluorescence-activated cell sorting (FACS) analysis. Strikingly, p53 stabilization was sustained longer in leukemic cells (up to 48 hours) compared with normal BM cells (for 24 hours).

[4] = Nonclinical pharmacokinetics in monkeys; assay type: in vivo
Description: The systemic clearance of Compound 1 was low and the volume of distribution was high in rats and monkeys. […] Notable sex differences in PK were not observed in either species. Compound 1 had good oral bioavailability (≥50%) in rats and monkeys.

Plasma protein binding = assay type: in vitro ADME, human and nonclinical species
Description: (§1) There was no marked difference in free fraction among human, rat and monkey. Over the concentration ranges tested (25- to 50-fold range) in each species, there was <2-fold change in free fraction.

[5] = Partitioning into blood cells; assay type: in vitro ADME
Description: as §1

CYP2C8 = target: T1, CYP2C8 (Homo sapiens, UniProt P10632); assay: CYP inhibition in human liver microsomes, CYP2C8; assay type: in vitro ADME
T1 construct: In human liver microsomes; from tissue; host or cells: human liver microsomes
T1 sequence (P10632 whole entry): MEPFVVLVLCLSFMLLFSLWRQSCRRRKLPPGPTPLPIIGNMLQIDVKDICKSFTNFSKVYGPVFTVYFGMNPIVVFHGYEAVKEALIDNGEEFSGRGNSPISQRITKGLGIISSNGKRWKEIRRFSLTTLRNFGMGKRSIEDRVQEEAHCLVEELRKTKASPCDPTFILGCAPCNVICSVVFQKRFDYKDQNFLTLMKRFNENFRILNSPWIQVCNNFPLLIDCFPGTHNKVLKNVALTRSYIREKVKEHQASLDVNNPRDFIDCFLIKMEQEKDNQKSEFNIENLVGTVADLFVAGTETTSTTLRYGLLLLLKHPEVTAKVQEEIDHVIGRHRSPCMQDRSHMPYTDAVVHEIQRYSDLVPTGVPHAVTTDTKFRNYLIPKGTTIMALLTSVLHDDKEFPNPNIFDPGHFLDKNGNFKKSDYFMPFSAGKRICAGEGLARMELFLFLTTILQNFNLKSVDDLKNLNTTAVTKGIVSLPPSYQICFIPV

CYP3A4/5 = assay: CYP inhibition in human liver microsomes, CYP3A4/5; assay type: in vitro ADME
CYP2A6 = target: T2, CYP2A6 (Homo sapiens, UniProt P11509); assay: CYP inhibition in human liver microsomes, CYP2A6; assay type: in vitro ADME
T2 construct: In human liver microsomes; from tissue; host or cells: human liver microsomes
T2 sequence (P11509 whole entry): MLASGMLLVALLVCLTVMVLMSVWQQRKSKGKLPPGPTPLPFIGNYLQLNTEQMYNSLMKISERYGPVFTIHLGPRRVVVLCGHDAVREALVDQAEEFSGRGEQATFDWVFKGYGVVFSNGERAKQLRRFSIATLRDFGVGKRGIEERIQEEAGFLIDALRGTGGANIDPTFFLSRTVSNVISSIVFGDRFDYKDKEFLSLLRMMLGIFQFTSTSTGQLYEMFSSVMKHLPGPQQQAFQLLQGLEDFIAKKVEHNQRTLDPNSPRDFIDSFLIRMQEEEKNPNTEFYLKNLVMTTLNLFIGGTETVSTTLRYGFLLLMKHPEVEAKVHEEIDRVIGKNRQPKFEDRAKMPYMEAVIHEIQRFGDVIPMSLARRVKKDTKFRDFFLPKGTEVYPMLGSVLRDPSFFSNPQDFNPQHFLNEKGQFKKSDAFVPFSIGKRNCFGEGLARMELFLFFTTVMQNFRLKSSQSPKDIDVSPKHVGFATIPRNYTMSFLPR

CYP2B6 [6] = target: T3, CYP2B6 (Homo sapiens, UniProt P20813); assay: CYP inhibition in human liver microsomes, CYP2B6; assay type: in vitro ADME
T3 construct: In human liver microsomes; from tissue; host or cells: human liver microsomes
T3 sequence (P20813 whole entry): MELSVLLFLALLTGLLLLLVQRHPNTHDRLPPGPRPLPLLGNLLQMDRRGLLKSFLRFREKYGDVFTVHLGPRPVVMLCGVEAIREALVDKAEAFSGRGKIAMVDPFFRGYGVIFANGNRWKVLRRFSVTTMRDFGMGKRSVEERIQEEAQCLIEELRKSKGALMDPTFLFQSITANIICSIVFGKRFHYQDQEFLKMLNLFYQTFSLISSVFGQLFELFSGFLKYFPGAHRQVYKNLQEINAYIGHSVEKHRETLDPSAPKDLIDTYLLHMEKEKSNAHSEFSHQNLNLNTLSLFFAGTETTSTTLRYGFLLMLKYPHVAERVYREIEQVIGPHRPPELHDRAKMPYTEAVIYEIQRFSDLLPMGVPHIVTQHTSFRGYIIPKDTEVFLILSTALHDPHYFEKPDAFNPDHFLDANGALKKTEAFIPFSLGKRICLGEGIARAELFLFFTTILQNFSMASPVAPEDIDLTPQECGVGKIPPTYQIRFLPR

CYP2D6 = target: T4, CYP2D6 (Homo sapiens, UniProt P10635); assay: CYP inhibition in human liver microsomes, CYP2D6; assay type: in vitro ADME
T4 construct: In human liver microsomes; from tissue; host or cells: human liver microsomes
T4 sequence (P10635 whole entry): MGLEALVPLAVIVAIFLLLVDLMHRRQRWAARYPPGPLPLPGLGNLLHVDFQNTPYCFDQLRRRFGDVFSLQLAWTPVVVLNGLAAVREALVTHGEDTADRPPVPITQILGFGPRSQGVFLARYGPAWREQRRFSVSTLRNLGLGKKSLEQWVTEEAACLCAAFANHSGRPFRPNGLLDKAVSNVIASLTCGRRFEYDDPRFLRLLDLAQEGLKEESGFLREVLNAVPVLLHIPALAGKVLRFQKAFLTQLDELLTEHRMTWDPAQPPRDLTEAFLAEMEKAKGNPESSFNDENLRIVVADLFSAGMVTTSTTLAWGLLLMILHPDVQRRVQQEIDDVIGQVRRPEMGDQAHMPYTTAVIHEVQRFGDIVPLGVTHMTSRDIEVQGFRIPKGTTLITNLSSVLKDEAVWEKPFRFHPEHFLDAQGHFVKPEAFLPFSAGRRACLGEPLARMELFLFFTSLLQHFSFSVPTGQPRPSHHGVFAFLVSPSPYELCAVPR

CYP2E1 = target: T5, CYP2E1 (Homo sapiens, UniProt P05181); assay: CYP inhibition in human liver microsomes, CYP2E1; assay type: in vitro ADME
T5 construct: In human liver microsomes; from tissue; host or cells: human liver microsomes
T5 sequence (P05181 whole entry): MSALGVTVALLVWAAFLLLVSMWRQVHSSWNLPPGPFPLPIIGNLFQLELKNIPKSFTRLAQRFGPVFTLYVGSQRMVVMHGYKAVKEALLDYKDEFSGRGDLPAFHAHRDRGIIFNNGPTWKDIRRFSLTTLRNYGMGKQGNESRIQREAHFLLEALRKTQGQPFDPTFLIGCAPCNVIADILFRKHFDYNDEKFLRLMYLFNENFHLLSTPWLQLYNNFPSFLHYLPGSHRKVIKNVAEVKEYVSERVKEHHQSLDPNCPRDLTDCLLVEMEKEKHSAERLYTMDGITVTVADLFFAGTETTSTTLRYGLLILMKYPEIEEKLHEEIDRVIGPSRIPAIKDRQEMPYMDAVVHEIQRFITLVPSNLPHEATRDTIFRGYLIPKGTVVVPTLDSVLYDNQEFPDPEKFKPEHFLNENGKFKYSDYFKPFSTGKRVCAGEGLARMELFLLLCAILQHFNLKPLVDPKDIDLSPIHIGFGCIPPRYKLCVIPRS

CYP1A2 = assay: CYP induction in human hepatocyte culture, CYP1A2 mRNA; assay type: in vitro ADME; details: up to 50 μM for three consecutive days
CYP2B6 [7] = assay: CYP induction in human hepatocyte culture, CYP2B6 mRNA; assay type: in vitro ADME; details: up to 50 μM for three consecutive days
CYP3A4 = assay: CYP induction in human hepatocyte culture, CYP3A4 mRNA; assay type: in vitro ADME; details: up to 50 μM for three consecutive days
[8] = tested on: Salmonella typhimurium strains (TA1535, TA1537, TA98, TA100); assay: Bacterial reverse mutation test, Salmonella typhimurium; assay type: cell-based
Procedure: (§2) Compound 1 was tested in Salmonella typhimurium strains (TA1535, TA1537, TA98, TA100) and Escherichia coli strain WP2 uvrA at a range of concentrations up to 5000 μg/plate (the standard limit concentration for this assay), in the presence and absence of a supplemented rat liver fraction (S9 mix), using the plate incorporation version of the bacterial reverse mutation test. Dimethyl sulfoxide (DMSO) was used as the solvent.
(§3) The mean revertant colony counts for the negative controls were within the laboratory historical control range. Bacteria were also incubated with standard positive controls, and the response of the various bacterial strains to these agents confirmed the sensitivity of the test system and the activity of the S9 mix. Therefore, the results from both the negative and positive controls confirmed the validity of the assay.
(§4) No substantial increases in revertant colony numbers were obtained with any of the tester strains, following exposure to Compound 1 at any concentration, in either the presence or absence of S9 mix. Therefore, Compound 1 was considered to be negative for the induction of mutagenicity in this in vitro assay.

[9] = tested on: Escherichia coli strain WP2 uvrA; assay: Bacterial reverse mutation test, Escherichia coli; assay type: cell-based
Procedure: as §2, §3, §4

[10] = Dose toxicity and toxicokinetics study in rats; assay type: in vivo; details: for AUC / Cmax: both sexes; for AUC / Cmax / NOAEL: rat, in vivo, po; for NOAEL: female, oral gavage, read-out: NOAEL (females)
Procedure: Additionally, control animals were dosed with a vehicle using a combination of both dosing regimens. Recovery of test article-related effects was evaluated during a 4-week recovery period.
Animals in Regimen 1 were dosed for 7 consecutive days in each 4-week cycle for 2 cycles (0.3 or 3 mg/kg on Days 1-7 and 29-35), whereas animals in Regimen 2 were dosed twice weekly for 4 weeks (0.5 or 5 mg/kg on Days 1, 4, 8, 11, 15, 18, 22 and 25). End of dosing necropsy was performed on the day after the last dose administration. A 4-week recovery period was included to assess reversibility of findings.

[11] = up to 5000 μg/plate, presence and absence of S9 mix
[12] = 0.3 mg/kg, Regimen 1, sexes combined
[13] = 0.5 mg/kg, Regimen 2, sexes combined

O=C1CC[C@H](N2Cc3cc(C(=O)N[C@H](c4ncccc4Cl)C(F)(F)F)ccc3C2=O)C(=O)N1 [Compound 1, N-((R)-1-(3-chloropyridin-2-yl)-2,2,2-trifluoroethyl)-2-((S)-2,6-dioxopiperidin-3-yl)-1-oxoisoindoline-5-carboxamide]
pIC50 ([1]; Homo sapiens): 6.39 to 7.66 | number of BM samples with sensitive leukemic cells ([1]; out of 9 AML patient BM samples): 5 | samples with inhibited formation of CFU-GM colonies [2]: 77.8% | duration of sustained CK1α degradation ([3]; AML blasts in culture, FACS): up to 5 days | cellular outcome ([3]; leukemic cells): apoptotic outcome | duration of sustained p53 stabilization ([3]; leukemic cells): up to 48 hours | accumulation following multiple doses [4]: No accumulation | systemic clearance [4]: low | volume of distribution [4]: high | bioavailability ([4]; monkey, in vivo, po): ≥ 50% | half-life ([4]; monkey, in vivo, read-out: terminal half-life): 2.3 to 4.4 h | change in free fraction (Plasma protein binding; over the concentration ranges tested (25- to 50-fold range) in each species): < 2 fold | fraction unbound (Plasma protein binding; plasma, human and nonclinical species): 0.007 to 0.103 | partitioning into blood cells [5]: no or limited partitioning | time-dependent inhibition (CYP2C8; CYP2C8, 30-minute preincubation with NADPH): not a time-dependent inhibition | pIC50 (CYP2C8; human liver microsomes, CYP2C8): < 4.52 | pIC50 (CYP3A4/5; human liver microsomes, CYP3A4/5): < 4.52 | inhibition at 30 min, 30 µM (CYP3A4/5; human, liver microsomes, CYP3A4/5, at 30 μM, 30-minute preincubation with NADPH, read-out: time-dependent inhibition): < 20% | time-dependent inhibition (CYP2A6; CYP2A6, 30-minute preincubation with NADPH): not a time-dependent inhibition | inhibitory effect (CYP2A6; human liver microsomes, CYP2A6): ≤ 25% | time-dependent inhibition (CYP2B6 [6]; CYP2B6, 30-minute preincubation with NADPH): not a time-dependent inhibition | inhibitory effect (CYP2B6 [6]; human liver microsomes, CYP2B6): ≤ 25% | time-dependent inhibition (CYP2D6; CYP2D6, 30-minute preincubation with NADPH): not a time-dependent inhibition | inhibitory effect (CYP2D6; human liver microsomes, CYP2D6): ≤ 25% | time-dependent inhibition (CYP2E1; CYP2E1, 30-minute preincubation with NADPH): not a time-dependent inhibition | inhibitory effect (CYP2E1; human liver microsomes, CYP2E1): ≤ 25% | mRNA expression of CYP1A2 (CYP1A2): no dose-dependent increases | mRNA expression of CYP2B6 (CYP2B6 [7]): no dose-dependent increases | mRNA expression of CYP3A4 (CYP3A4): no dose-dependent increases | toxicity to the bacteria ([8]; highest concentrations tested): non-toxic | induction of mutagenicity (revertant colony numbers) [8, 11]: negative | toxicity to the bacteria ([9]; highest concentrations tested): non-toxic | induction of mutagenicity (revertant colony numbers) [9, 11]: negative | severely toxic dose in 10% of the animals (STD 10) ([10]; Regimen 1): 0.3 mg/kg | severely toxic dose in 10% of the animals (STD 10) ([10]; Regimen 2): 0.5 mg/kg | NOAEL (males) ([10]; both regimens): not identified | AUC [10, 12]: 761 ng·h/mL | Cmax [10, 12]: 225 ng/mL | AUC [10, 13]: 1200 ng·h/mL | Cmax [10, 13]: 263 ng/mL | NOAEL ([10]; Regimen 1 (Days 1-7 and 29-35)): 0.3 mg/kg | NOAEL ([10]; Regimen 2 (twice weekly for 4 weeks)): 0.5 mg/kg
